Assay results published in patent US4731109A, “Herbicidal 2-haloacetanilides” (Monsanto Company, priority 1982, dated 1988).

Legend:
soybeans = assay: Herbicidal effect in a variety of soil types; format: in vivo
rape = assay: Greenhouse pre-emergence GR15/GR85 selectivity test; format: in vivo
Procedure, shortened: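 Pre-emergence soil-incorporation test: seeded pans were covered with topsoil mixed with active ingredient (in solvent or as wettable powder), overhead-irrigated (0.64 cm) or not, then subirrigated. Plants were scored about 2-3 weeks after treatment. GR15/GR85 rates are in kg/ha, and selectivity factor is crop GR15 divided by weed GR85.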

Quackgrass [1] = assay: Herbicidal effect in a variety of soil types; format: in vivo; conditions: for selectivity factor (GR15/GR85): in soybeans
Description: A further guide to the effectiveness of a chemical as a selective herbicide is the "selectivity factor" ("SF") for a herbicide in given crops and weeds. The selectivity factor is a measure of the relative degree of crop safety and weed injury and is expressed in terms of the GR15 /GR85 ratio, i.e., the GR15 rate for the crop divided by the GR85 rate for the weed, both rates in kg/ha (lb/A).
The herbicide treatments were by soil incorporation with seeds planted 0.375 in (0.95 cm) deep, with 0.25 in (0.64 cm overhead irrigation. Observations were made about three weeks after treatment. Selectivity factors are shown in parenthesis.

wild proso millet = assay: Greenhouse pre-emergence GR15/GR85 selectivity test; format: in vivo, wild proso millet (panicum milicaeum)
Procedure, shortened: (§1)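 Soil-incorporated pre-emergence treatment: compound (solvent or wettable powder) mixed into covering soil over seeded pans; overhead irrigation once, subirrigation thereafter; scored ~2-3 wk after seeding. SF = crop GR15/weed GR85 (kg/ha); NS non-selective.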

corn = assay: as above; format: in vivo
Procedure, shortened: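 Active ingredient mixed into cover soil over seeded pans (pre-emergence soil incorporation), initial overhead irrigation equal to 0.64 cm rainfall, then subirrigation. Scored about 2-3 weeks after seeding; GR15 (crop) and GR85 (weed) rates in kg/ha, selectivity factor = crop GR15 / weed GR85.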

Yellow Nutsedge = assay: as above; format: in vivo
Quackgrass [2] = assay: as above; format: in vivo
red rice = assay: as above; format: in vivo
Procedure, shortened: as §1

fall panicum = assay: as above; format: in vivo
Procedure, shortened: as §1

alexandergrass = assay: as above; format: in vivo
Procedure, shortened: as §1

Texas panicum = assay: as above; format: in vivo
Procedure, shortened: as §1

shattercane = assay: as above; format: in vivo
Procedure, shortened: as §1

itchgrass = assay: as above; format: in vivo
Procedure, shortened: as §1

seedling johnsongrass = assay: as above; format: in vivo
Procedure, shortened: as §1

[3] = Drummer silty clay, Table XVII A
[4] = yellow nutsedge in corn, Table IV, Replicate #2
[5] = yellow nutsedge in soybeans, Table IV, Replicate #2
[6] = quackgrass in corn, Table IV, Replicate #2
[7] = quackgrass in soybeans, Table IV, Replicate #2
[8] = Drummer silty clay, Table XVII C
[9] = Wabash silty clay, Table XVII C

## CC(C)OCN(C(=O)CCl)c1ccccc1C(F)(F)F [Example 2, N--(isopropoxymethyl)-2'-trifluoromethyl-2-chloroacetanilide]
soybeans; [3]
  GR15: > 2.2 Kg/Ha
soybeans; Florida muck, Table XVII A
  GR15: > 2.2 Kg/Ha
soybeans; Florida sand, Table XVII A
  GR15: 1.7 Kg/Ha
soybeans; Ray silt loam, Table XVII A
  GR15: 2.2 Kg/Ha
soybeans; Sarpy silty clay, Table XVII A
  GR15: > 2.2 Kg/Ha
rape; Table VI
  GR15 Rate: 1.9 Kg/Ha
Quackgrass [1]; [3]
  GR85: 0.56 Kg/Ha
  selectivity factor (GR15/GR85): > 4
Quackgrass [1]; Florida muck, Table XVII A
  GR85: 0.95 Kg/Ha
  selectivity factor (GR15/GR85): > 2
Quackgrass [1]; Florida sand, Table XVII A
  GR85: 0.22 Kg/Ha
  selectivity factor (GR15/GR85): 7.5
Quackgrass [1]; Ray silt loam, Table XVII A
  GR85: 0.28 Kg/Ha
  selectivity factor (GR15/GR85): 8
Quackgrass [1]; Sarpy silty clay, Table XVII A
  GR85: 0.43 Kg/Ha
  selectivity factor (GR15/GR85): > 5
Quackgrass [1]; Wabash silty clay, Table XVII A
  GR85: 0.34 Kg/Ha
Wild proso millet; Table XIV
  GR85 Rate: 1.1 Kg/Ha
Wild proso millet; in soybeans, Table XIV
  selectivity factor (GR15/GR85): > 1.0
corn; Table IV, Replicate #1
  GR15: 3.1 Kg/Ha
corn; Table IV, Replicate #2
  GR15: 0.78 Kg/Ha
Yellow Nutsedge; Table IV, Replicate #1
  GR85: 0.17 Kg/Ha
Yellow Nutsedge; Table IV, Replicate #2
  GR85: 0.20 Kg/Ha
Yellow Nutsedge; yellow nutsedge in corn, Table IV, Replicate #1
  selectivity factor (GR15/GR85): 18
Yellow Nutsedge; [4]
  selectivity factor (GR15/GR85): 4
Yellow Nutsedge; yellow nutsedge in soybeans, Table IV, Replicate #1
  selectivity factor (GR15/GR85): 10
Yellow Nutsedge; [5]
  selectivity factor (GR15/GR85): 8.5
Quackgrass [2]; Table IV, Replicate #1
  GR85: 0.26 Kg/Ha
Quackgrass [2]; Table IV, Replicate #2
  GR85: 0.22 Kg/Ha
Quackgrass [2]; Table VI
  GR85 Rate: 0.28 Kg/Ha
Quackgrass [2]; quackgrass in corn, Table IV, Replicate #1
  selectivity factor (GR15/GR85): 12
Quackgrass [2]; [6]
  selectivity factor (GR15/GR85): 3.5
Quackgrass [2]; quackgrass in rape, Table VI
  selectivity factor (GR15/GR85): 7
Quackgrass [2]; quackgrass in snapbeans, Table VI
  selectivity factor (GR15/GR85): 8
Quackgrass [2]; quackgrass in soybeans, Table IV, Replicate #1
  selectivity factor (GR15/GR85): 6.5
Quackgrass [2]; [7]
  selectivity factor (GR15/GR85): 7.5
Red rice; Table XIV
  GR85 Rate: 0.14 Kg/Ha
Red rice; in soybeans, Table XIV
  selectivity factor (GR15/GR85): > 8.0
Fall panicum; Table XIV
  GR85 Rate: < 0.07 Kg/Ha
Fall panicum; in soybeans, Table XIV
  selectivity factor (GR15/GR85): > 16
alexandergrass; Table XIV
  GR85 Rate: > 1.1 Kg/Ha
Texas panicum; Table XIV
  GR85 Rate: > 1.12 Kg/Ha
shattercane; Table XIV
  GR85 Rate: 0.93 Kg/Ha
shattercane; in soybeans, Table XIV
  selectivity factor (GR15/GR85): > 1.12
itchgrass; Table XIV
  GR85 Rate: > 1.1 Kg/Ha
Seedling johnsongrass; Table XIV
  GR85 Rate: 0.28 Kg/Ha
Seedling johnsongrass; in soybeans, Table XIV
  selectivity factor (GR15/GR85): > 4.0

## CCOCN(C(=O)CCl)c1c(CC)cccc1C(F)(F)F [Example 9, N--(ethoxymethyl)-2'-trifluoromethyl-6'-ethyl-2-chloroacetanilide]
soybeans; [8]
  GR15: > 2.2 Kg/Ha
soybeans; Florida muck, Table XVII C
  GR15: > 2.2 Kg/Ha
soybeans; Ray silt loam, Table XVII C
  GR15: > 2.2 Kg/Ha
soybeans; Sarpy silty clay, Table XVII C
  GR15: > 2.2 Kg/Ha
soybeans; [9]
  GR15: 3.0 Kg/Ha
rape; Table XV
  GR15 Rate: 0.98 Kg/Ha
Quackgrass [1]; [8]
  GR85: 0.17 Kg/Ha
  selectivity factor (GR15/GR85): > 13
Quackgrass [1]; Florida muck, Table XVII C
  GR85: 0.73 Kg/Ha
  selectivity factor (GR15/GR85): > 3
Quackgrass [1]; Ray silt loam, Table XVII C
  GR85: 0.13 Kg/Ha
  selectivity factor (GR15/GR85): > 16.5
Quackgrass [1]; Sarpy silty clay, Table XVII C
  GR85: 0.13 Kg/Ha
  selectivity factor (GR15/GR85): > 16.5
Quackgrass [1]; [9]
  GR85: 0.24 Kg/Ha
  selectivity factor (GR15/GR85): 12.5
Wild proso millet; Table XVI
  GR85 Rate: 0.56 Kg/Ha
Wild proso millet; in lima beans, Table XVI
  selectivity factor (GR15/GR85): 1.3
Wild proso millet; in peanuts, Table XVI
  selectivity factor (GR15/GR85): 1.6
corn; Table IV, Replicate #2
  GR15: 2.2 Kg/Ha
corn; Table XII
  GR15: 2.5 Kg/Ha
corn; Table XIII
  GR15: 1.7 Kg/Ha
Yellow Nutsedge; Table IV, Replicate #2
  GR85: 0.17 Kg/Ha
Yellow Nutsedge; Table XII
  GR85: 0.21 Kg/Ha
Yellow Nutsedge; in cotton
  GR85: 0.47 kg/ha
  S.F. (GR15/GR85): 1.5
Yellow Nutsedge; in rice
  selectivity with respect to yellow nutsedge in rice: non-selective
Yellow Nutsedge; [4]
  selectivity factor (GR15/GR85): 13
Yellow Nutsedge; yellow nutsedge in corn, Table XII
  selectivity factor (GR15/GR85): 12
Yellow Nutsedge; yellow nutsedge in cotton, Table XII
  selectivity factor (GR15/GR85): 12
Yellow Nutsedge; [5]
  selectivity factor (GR15/GR85): 12.5
Yellow Nutsedge; yellow nutsedge in soybeans, Table XII
  selectivity factor (GR15/GR85): 9.5
Quackgrass [2]; Table IV, Replicate #2
  GR85: 0.20 Kg/Ha
Quackgrass [2]; Table XIII
  GR85: 0.36 Kg/Ha
Quackgrass [2]; in wheat
  selectivity against quackgrass in wheat: non-selective
Quackgrass [2]; [6]
  selectivity factor (GR15/GR85): 11
Quackgrass [2]; quackgrass in corn, Table XIII
  selectivity factor (GR15/GR85): 4.7
Quackgrass [2]; [7]
  selectivity factor (GR15/GR85): 10.5
Quackgrass [2]; quackgrass in soybeans, Table XIII
  selectivity factor (GR15/GR85): 4.7
Red rice; Table XVI
  GR85 Rate: 0.42 Kg/Ha
Red rice; in lima beans, Table XVI
  selectivity factor (GR15/GR85): 1.8
Red rice; in peanuts, Table XVI
  selectivity factor (GR15/GR85): 2.1
Fall panicum; Table XVI
  GR85 Rate: 0.13 Kg/Ha
Fall panicum; in lima beans, Table XVI
  selectivity factor (GR15/GR85): 5.8
Fall panicum; in peanuts, Table XVI
  selectivity factor (GR15/GR85): 6.9
alexandergrass; Table XV
  GR85 Rate: 0.19 Kg/Ha
alexandergrass; in rape, Table XV
  selectivity factor (GR15/GR85): 5.2
Texas panicum; Table XVI
  GR85 Rate: 0.56 Kg/Ha
Texas panicum; in lima beans, Table XVI
  selectivity factor (GR15/GR85): 1.3
Texas panicum; in peanuts, Table XVI
  selectivity factor (GR15/GR85): 1.6
shattercane; Table XVI
  GR85 Rate: 0.21 Kg/Ha
shattercane; in lima beans, Table XVI
  selectivity factor (GR15/GR85): 3.6
shattercane; in peanuts, Table XVI
  selectivity factor (GR15/GR85): 4.3
itchgrass; Table XVI
  GR85 Rate: 0.53 Kg/Ha
itchgrass; in lima beans, Table XVI
  selectivity factor (GR15/GR85): 1.4
itchgrass; in peanuts, Table XVI
  selectivity factor (GR15/GR85): 1.7
Seedling johnsongrass; Table XVI
  GR85 Rate: 0.25 Kg/Ha
Seedling johnsongrass; in lima beans, Table XVI
  selectivity factor (GR15/GR85): 3
Seedling johnsongrass; in peanuts, Table XVI
  selectivity factor (GR15/GR85): 3.6
